Experimental data published in the supplement of paper PMC11061612.

How the values were obtained:
[1] = compound: CN(CC[C@H](CSC1=CC=CC=C1)NC2=C(C=C(C=C2)S(=O)(=O)NC(=O)C3=CC=C(C=C3)N4CCC(CC4)[C@H](C5=CC=CC=C5C6=CC=C(C=C6)Cl)O)S(=O)(=O)C(F)(F)F)CCO [AZD4320]; conditions: max 1 µM
Method in brief: (§1)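 Cancer cell lines were dosed for 72 hours (final DMSO typically 0.2%) after 24 hours at 37°C and 5% CO2 in 1536-well plates containing 7.5 μl DMEM/F12 or RPMI with 10% FBS. Viability came from CellTiter-Glo 2.0 luminescence, scaled between blank-well and DMSO-well means, and dose responses were fitted to a two-parameter logistic curve with a non-linear mixed effects model. The single-agent IC50 was obtained from this fit.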

[2] = compound: CCN(CCO)CCCOc1ccc2c(Nc3cc(CC(=O)Nc4cccc(F)c4)[nH]n3)ncnc2c1 [AZD2811]; conditions: max 1 µM
Method in brief: as §1

[3] = compound: COc1cccc(OCCCN)c1-c1cc(Nc2cnc(C#N)cn2)n[nH]1 [Prexasertib]; conditions: max 1 µM
Method in brief: as §1

[4] = compound: C[C@@H](Nc1cc(F)cc(F)c1)c1cc(C(=O)N(C)C)cc2c(=O)cc(N3CCOCC3)oc12 [AZD8186]; conditions: max 3 µM
Method in brief: as §1

[5] = compound: CC(=O)Nc1cccc(-n2c(=O)n(C3CC3)c(=O)c3c(Nc4ccc(I)cc4F)n(C)c(=O)c(C)c32)c1 [Trametinib]; conditions: max 1 µM
Method in brief: as §1

[6] = compound: C=CCn1c(=O)c2cnc(Nc3ccc(N4CCN(C)CC4)cc3)nc2n1-c1cccc(C(C)(C)O)n1 [AZD1775]
Method in brief: as §1

[7] = compound: O=C(c1cc(Cc2n[nH]c(=O)c3ccccc23)ccc1F)N1CCN(C(=O)C2CC2)CC1 [Olaparib]; conditions: max 10 µM
Method in brief: as §1

[8] = compound: C[C@@H]1COCCN1C2=NC(=NC(=C2)C3(CC3)[S@](=N)(=O)C)C4=C5C=CNC5=NC=C4 [AZD6738]; conditions: max 10 µM
Method in brief: as §1

[9] = compound: C1CN(CCC1(C(=O)N[C@@H](CCO)C2=CC=C(C=C2)Cl)N)C3=NC=NC4=C3C=CN4 [Capivasertib]
Method in brief: as §1

[10] = compound: COc1cc(Nc2ncc3c(n2)-c2ccc(Cl)cc2C(c2c(F)cccc2OC)=NC3)ccc1C(=O)O [Alisertib]; conditions: max 10 µM
Method in brief: as §1

[11] = compound: Cc1cc2ncnn2cc1Nc1ncc2c(n1)n(C1CCOCC1)c(=O)n2C [AZD7648]; conditions: max 10 µM
Method in brief: as §1

[12] = compound: Cc1nc(-c2cn3c(n2)-c2ccc(-c4cnn(C(C)(C)C(N)=O)c4)cc2OCC3)n(C(C)C)n1 [Taselisib]; conditions: max 10 µM
Method in brief: as §1

[13] = compound: Cn1cnc2c(F)c(Nc3ccc(Br)cc3Cl)c(C(=O)NOCCO)cc21 [Selumetinib]
Method in brief: as §1

[14] = compound: COc1cccc2c1C(=O)c1c(O)c3c(c(O)c1C2=O)C[C@@](O)(C(=O)CO)C[C@@H]3O[C@H]1C[C@H](N)[C@H](O)[C@H](C)O1 [Doxorubicin]; conditions: max 1 µM
Method in brief: as §1

[15] = compound: CC1=CN2[C@@H](C1)C=NC3=CC(=C(C=C3C2=O)OC)OCCCCCOC4=C(C=C5C(=C4)N=C[C@@H]6CC(=CN6C5=O)C)OC [SG3199]; conditions: max 0.001 µM
Method in brief: as §1

[16] = compound: CN(C)CCCOc1ccc(-c2ccc3ncc4c(c3c2)n(C2CCOCC2)c(=O)n4C)cn1 [AZD0156]
Method in brief: as §1

[17] = compound: Cc1c2c(nn1C)CSCc1cc(n(C)n1)CSc1cc(c3ccccc3c1)OCCCc1c(C(=O)O)n(C)c3c-2c(Cl)ccc13 [AZD5991]; conditions: max 1 µM
Method in brief: as §1

[18] = compound: CCc1c2c(nc3ccc(O)cc13)-c1cc3c(c(=O)n1C2)COC(=O)[C@]3(O)CC [SN-38]; conditions: max 0.3 µM
Method in brief: as §1

[19] = compound: CC1(C)CCC(CN2CCN(c3ccc(C(=O)NS(=O)(=O)c4ccc(NCC5CCOCC5)c([N+](=O)[O-])c4)c(Oc4cnc5[nH]ccc5c4)c3)CC2)=C(c2ccc(Cl)cc2)C1 [Venetoclax]; conditions: max 1 µM
Method in brief: as §1

[20] = compound: C[C@@H](c1ccc2nccn2c1)n1nnc2ncc(-c3cnn(C)c3)nc21 [Savolitinib]; conditions: max 1 µM
Method in brief: as §1

[21] = compound: CC1=C(C(=CC=C1)Cl)NC(=O)C2=CN=C(S2)NC3=CC(=NC(=N3)C)N4CCN(CC4)CCO [Dasatinib]; conditions: max 2 µM
Method in brief: as §1

[22] = compound: CS(=O)(=O)CCNCc1ccc(-c2ccc3ncnc(Nc4ccc(OCc5cccc(F)c5)c(Cl)c4)c3c2)o1 [Lapatinib]; conditions: max 10 µM
Method in brief: as §1

[23] = compound: COc1nnc2ccc(N3CCC(c4ccc(OCCN5CCN(C)C(=O)[C@H]5C)cc4)CC3)nn12 [AZD5153]; conditions: max 1 µM
Method in brief: as §1

[24] = compound: CC(=O)c1c(C)c2cnc(Nc3ccc(N4CCNCC4)cn3)nc2n(C2CCCC2)c1=O [Palbociclib]; conditions: max 10 µM
Method in brief: as §1

[25] = compound: COc1cc2ncnc(Nc3ccc(F)c(Cl)c3)c2cc1OCCCN1CCOCC1 [Gefitinib]; conditions: max 10 µM
Method in brief: as §1

[26] = compound: C[C@@H](Oc1cc(-c2cnn(C3CCNCC3)c2)cnc1N)c1c(Cl)ccc(F)c1Cl [Crizotinib]; conditions: max 10 µM
Method in brief: as §1

[27] = compound: CC(C)n1c(=O)n(C)c2cnc3cc(F)c(-c4ccc(OCCCN5CCCCC5)nc4)cc3c21 [AZD1390]; conditions: max 0.3 µM
Method in brief: as §1

Row | Cell Line | IC50, cell viability 72 h [1] | IC50, cell viability 72 h [2] | IC50, cell viability 72 h [3] | IC50, cell viability 72 h [4] | IC50, cell viability 72 h [5] | IC50, cell viability 72 h ([6]; max 1 µM) | IC50, cell viability 72 h [7] | IC50, cell viability 72 h [8] | IC50, cell viability 72 h ([9]; max 3 µM) | IC50, cell viability 72 h [10] | IC50, cell viability 72 h [11] | IC50, cell viability 72 h [12] | IC50, cell viability 72 h ([13]; max 3 µM) | IC50, cell viability 72 h [14] | IC50, cell viability 72 h [15] | IC50, cell viability 72 h ([16]; max 1 µM) | IC50, cell viability 72 h [17] | IC50, cell viability 72 h [18] | IC50, cell viability 72 h [19] | IC50, cell viability 72 h [20] | IC50, cell viability 72 h [21] | IC50, cell viability 72 h ([6]; max 3 µM) | IC50, cell viability 72 h [22] | IC50, cell viability 72 h ([9]; max 10 µM) | IC50, cell viability 72 h ([13]; max 10 µM) | IC50, cell viability 72 h [23] | IC50, cell viability 72 h [24] | IC50, cell viability 72 h [25] | IC50, cell viability 72 h ([16]; max 3 µM) | IC50, cell viability 72 h [26] | IC50, cell viability 72 h [27]
1 | NMC-G1 (Low Grade Glioma) | > 1000 nM | > 1000 nM | > 1000 nM | > 3000 nM | > 1000 nM | > 1000 nM | > 10000 nM | > 10000 nM | > 3000 nM | > 10000 nM | > 10000 nM | > 10000 nM | > 3000 nM | > 1000 nM | > 1 nM | > 1000 nM | > 1000 nM | > 300 nM | > 1000 nM |  |  |  |  |  |  |  |  |  |  |  | 
2 | MOLP-8 (Plasma Cell Myeloma) | > 1000 nM | > 1000 nM | 24.5 nM | > 3000 nM | > 1000 nM |  | > 10000 nM | 3830 nM |  | 5240 nM | > 10000 nM | 439 nM |  | 407 nM | > 1 nM |  | 48.5 nM | 48.4 nM | > 1000 nM | > 1000 nM | > 2000 nM | 465 nM | > 10000 nM | 8910 nM | > 10000 nM | 49.5 nM | > 10000 nM | > 10000 nM | 1740 nM | 2650 nM | > 300 nM
3 | SNU-C2B (Colorectal Carcinoma) | > 1000 nM | > 1000 nM | 133 nM | > 3000 nM | > 1000 nM |  | > 10000 nM | 7630 nM |  | > 10000 nM | > 10000 nM | 8210 nM |  | > 1000 nM | > 1 nM |  | > 1000 nM | > 300 nM | > 1000 nM | > 1000 nM | > 2000 nM | 1120 nM | > 10000 nM | > 10000 nM | > 10000 nM | 788 nM | > 10000 nM | > 10000 nM | > 3000 nM | > 10000 nM | > 300 nM
4 | DBTRG-05MG (Glioblastoma) | > 1000 nM | > 1000 nM | > 1000 nM | > 3000 nM | > 1000 nM |  | > 10000 nM | > 10000 nM |  | > 10000 nM | > 10000 nM | > 10000 nM |  | > 1000 nM | > 1 nM |  | > 1000 nM | > 300 nM | > 1000 nM | > 1000 nM | > 2000 nM | > 3000 nM | > 10000 nM | > 10000 nM | > 10000 nM | > 1000 nM | > 10000 nM | > 10000 nM | > 3000 nM | > 10000 nM | > 300 nM
5 | BHT-101 (Thyroid Gland Carcinoma) | > 1000 nM | > 1000 nM | 293 nM | > 3000 nM | 18.2 nM |  | > 10000 nM | 9260 nM |  | 1850 nM | > 10000 nM | 6450 nM |  | > 1000 nM | > 1 nM |  | > 1000 nM | 30.9 nM | > 1000 nM | > 1000 nM | 1100 nM | > 3000 nM | > 10000 nM | > 10000 nM | 1360 nM | 60.1 nM | 9120 nM | > 10000 nM | > 3000 nM | 8670 nM | > 300 nM
6 | PA-TU-8988T (Pancreatic Carcinoma) | > 1000 nM | > 1000 nM | > 1000 nM | > 3000 nM | > 1000 nM |  | > 10000 nM | > 10000 nM |  | > 10000 nM | > 10000 nM | 6150 nM |  | 940 nM | > 1 nM |  | > 1000 nM | 185 nM | > 1000 nM | > 1000 nM | 664 nM | 1290 nM | > 10000 nM | > 10000 nM | > 10000 nM | 193 nM | > 10000 nM | > 10000 nM | > 3000 nM | > 10000 nM | > 300 nM
7 | T47D (Breast Carcinoma) | > 1000 nM | > 1000 nM | > 1000 nM | > 3000 nM | > 1000 nM |  | > 10000 nM | > 10000 nM |  | > 10000 nM | > 10000 nM | 776 nM |  | > 1000 nM | > 1 nM |  | > 1000 nM | 104 nM | > 1000 nM | > 1000 nM | > 2000 nM | > 3000 nM | > 10000 nM | > 10000 nM | > 10000 nM | > 1000 nM | > 10000 nM | > 10000 nM | > 3000 nM | > 10000 nM | > 300 nM
8 | NCI-H1963 (Small Cell Lung Carcinoma) | 15.2 nM | 36.1 nM | 44.3 nM | > 3000 nM | > 1000 nM | 525 nM | > 10000 nM | 2730 nM |  | 208 nM | > 10000 nM | 9650 nM |  | 830 nM | > 1 nM | > 1000 nM | > 1000 nM | 36.7 nM | 614 nM | > 1000 nM | > 2000 nM |  | > 10000 nM | > 10000 nM | 8820 nM | 99.3 nM | 6900 nM | > 10000 nM |  | 3040 nM | > 300 nM
